From PubChem BioAssay AID588588 (Sanford-Burnham Center for Chemical Genomics, 2011)
“And” between values parts separate entries of the source, which are not always exact repeats. Equal entries are not always repeated. The source made the active and inactive calls. How the calls were made is not given here.

Each molecule was assayed against glucose-6-phosphate dehydrogenase-6-phosphogluconolactonase (Plasmodium falciparum 3D7) (assay: inhibition of P. falciparum G6PD activity – biochemical, end-point NADPH detection, orthogonal assay, SAR follow-up (AID 588588)). Conditions: recombinant PfG6PD-6PGL, direct NADPH end-point detection.

For `COc1cccc(C(=O)Nc2nnc(S(=O)(=O)N3CCCCCC3)s2)c1`, which IC50 is on record?
Its IC50 is > 80 µM (inactive).

How did the IC50 turn out when `CCN1CCCC1CNC(=O)c1ccc2c(c1)NC(=O)/C(=C\c1ccc(C)cc1)S2` (configuration not stated) was run?
Its IC50 is > 80 µM (inactive).

Which IC50 does the source give for `O=C(Nc1nnc(S(=O)(=O)N2CCCCCC2)s1)C1CCCCC1` here?
The IC50 was > 80 µM (inactive).

For `CN(C)CCNC(=O)c1ccc2c(c1)NC(=O)c1ccccc1O2`, which IC50 is on record?
Its IC50 is > 80 µM (inactive).

`Cc1ccc(C(=O)Nc2nnc(S(=O)(=O)N3c4ccccc4CC3C)s2)cc1` (configuration not stated) was tested. Which IC50 did it give?
Its IC50 is > 80 µM (inactive).

For `Cc1ccc(C(=O)Nc2nnc(S(=O)(=O)N3CCCc4ccccc43)s2)cc1`, which IC50 is on record?
The IC50 was > 80 µM (inactive).

With `CCN(CCNC(=O)c1ccc2c(c1)N(Cc1cc(C)ccc1C)C(=O)c1ccccc1S2)c1ccccc1` as the molecule, how does the IC50 read?
Its IC50 is > 80 µM (inactive).

Which IC50 does the source give for `O=C1Nc2cc(C(=O)NCc3ccccc3)ccc2S/C1=C\c1ccccc1F` here?
The IC50 was > 80 µM (inactive).

`O=C1Nc2cc(C(=O)NCCN3CCCC3)ccc2S/C1=C/c1ccccc1Cl` was tested. Which IC50 did it give?
Its IC50 is > 80 µM (inactive).

Which IC50 does the source give for `CCC(C)N(CCNC(=O)c1ccc2c(c1)NC(=O)c1ccccc1S2)C1CCCCC1` (configuration not stated) here?
The IC50 was 6.22 µM.

Which IC50 does the source give for `O=C1Nc2cc(C(=O)NCCN3CCCCCC3)ccc2S/C1=C/c1ccccc1F` here?
Its IC50 is > 80 µM (inactive).

`CCN1CCCC1CNC(=O)c1ccc2c(c1)N(Cc1ccccc1Cl)C(=O)c1ccccc1S2` (configuration not stated) was tested. Which IC50 did it give?
The IC50 was > 80 µM (inactive).

With `O=C1COc2ccc(C(=O)NCCN3CCCC3)cc2N1` as the molecule, how does the IC50 read?
Its IC50 is > 80 µM (inactive).

`CCN1CCCC1CNC(=O)c1ccc2c(c1)NC(=O)/C(=C/c1ccccc1F)S2` (configuration not stated) was tested. Which IC50 did it give?
The IC50 was > 80 µM (inactive).

For `Cc1ccc(C(=O)Nc2nnc(S(=O)(=O)N3CCCCCC3)s2)cc1`, which IC50 is on record?
The IC50 was > 80 µM (inactive).

Which IC50 does the source give for `Cc1ccccc1C(=O)Nc1nnc(S(=O)(=O)N2CCCc3ccccc32)s1` here?
The IC50 was > 80 µM (inactive).

With `CN(C)CCNC(=O)c1ccc2c(c1)NC(=O)CO2` as the molecule, how does the IC50 read?
Its IC50 is > 80 µM (inactive).

`O=C(NCCN1CCOCC1)c1ccc2c(c1)NC(=O)c1ccccc1O2` was tested. Which IC50 did it give?
Its IC50 is > 80 µM (inactive).

How did the IC50 turn out when `CCN1CCCC1CNC(=O)c1ccc2c(c1)NC(=O)c1ccccc1S2` (configuration not stated) was run?
Its IC50 is 6.64 µM and 9.89 µM.

With `COc1ccc(C(=O)Nc2nnc(S(=O)(=O)N3CCCCCC3)s2)cc1OC` as the molecule, how does the IC50 read?
Its IC50 is > 80 µM (inactive).

`CCN(CCNC(=O)c1ccc2c(c1)NC(=O)c1ccccc1S2)c1ccccc1` was tested. Which IC50 did it give?
The IC50 was > 80 µM (inactive).

For `CCN1CCCC1CNC(=O)c1ccc2c(c1)N(Cc1ccc(C(F)(F)F)cc1)C(=O)c1ccccc1S2` (configuration not stated), which IC50 is on record?
Its IC50 is > 80 µM (inactive).

For `O=C(Nc1nnc(S(=O)(=O)N2CCCCCC2)s1)c1ccccc1`, which IC50 is on record?
Its IC50 is > 80 µM (inactive).

`CCN1CCC[C@@H]1CNC(=O)c1ccc2c(c1)NC(=O)/C(=C/c1ccccc1F)S2` was tested. Which IC50 did it give?
Its IC50 is > 80 µM (inactive).

For `CCN(CC)CCNC(=O)c1ccc2c(c1)N(Cc1cc(C)ccc1C)C(=O)c1ccccc1S2`, which IC50 is on record?
Its IC50 is > 80 µM (inactive).

Which IC50 does the source give for `O=C1COc2ccc(C(=O)NCCN3CCCCC3)cc2N1` here?
The IC50 was > 80 µM (inactive).

With `O=C(Nc1nnc(S(=O)(=O)N2CCCCCC2)s1)c1cccc(Cl)c1` as the molecule, how does the IC50 read?
The IC50 was > 80 µM (inactive).

How did the IC50 turn out when `CCN(CC)CCNC(=O)c1ccc2c(c1)NC(=O)/C(=C\c1ccc(OC)c(OC)c1)S2` was run?
Its IC50 is > 80 µM (inactive).

How did the IC50 turn out when `O=C(Nc1nnc(S(=O)(=O)N2CCCCCC2)s1)c1cccc(F)c1` was run?
Its IC50 is > 80 µM (inactive).

`CCN1CCC[C@H]1CNC(=O)c1ccc2c(c1)NC(=O)/C(=C/c1ccccc1F)S2` was tested. Which IC50 did it give?
The IC50 was > 80 µM (inactive).

`CCN(CCNC(=O)c1ccc2c(c1)N(CC)C(=O)c1ccccc1S2)c1ccccc1` was tested. Which IC50 did it give?
Its IC50 is > 80 µM (inactive).

Which IC50 does the source give for `CN1CCCC1CCNC(=O)c1ccc2c(c1)NC(=O)/C(=C/c1ccccc1F)S2` (configuration not stated) here?
Its IC50 is > 80 µM (inactive).

`CCN1CCCC1CNC(=O)c1ccc2c(c1)NC(=O)/C(=C/c1ccccc1C)S2` (configuration not stated) was tested. Which IC50 did it give?
The IC50 was > 80 µM (inactive).

For `CCN1CCCC1CNC(=O)c1ccc2c(c1)NC(=O)/C(=C/c1ccccc1OC)S2` (configuration not stated), which IC50 is on record?
The IC50 was > 80 µM (inactive).

How did the IC50 turn out when `CCN1CCCC1CNC(=O)c1ccc2c(c1)NC(=O)/C(=C/c1cccc3ccccc13)S2` (configuration not stated) was run?
The IC50 was > 80 µM (inactive).

With `O=C(Nc1nnc(S(=O)(=O)N2CCCCC2)s1)c1cccc(F)c1` as the molecule, how does the IC50 read?
The IC50 was > 80 µM (inactive).

For `O=C(NCCN1CCCC1)c1ccc2c(c1)NC(=O)c1ccccc1O2`, which IC50 is on record?
Its IC50 is > 80 µM (inactive).

With `CCN1CCCC1CNC(=O)c1ccc2c(c1)NC(=O)CS2` (configuration not stated) as the molecule, how does the IC50 read?
The IC50 was > 80 µM (inactive).

For `Cc1cccc(C(=O)Nc2nnc(S(=O)(=O)N3CCOCC3)s2)c1`, which IC50 is on record?
The IC50 was > 80 µM (inactive).

Which IC50 does the source give for `CCN(CC)CCNC(=O)c1ccc2c(c1)N(Cc1ccccc1Cl)C(=O)c1ccccc1S2` here?
Its IC50 is > 80 µM (inactive).

Which IC50 does the source give for `CCN1CCCC1CNC(=O)c1ccc2c(c1)N(Cc1ccccc1F)C(=O)c1ccccc1S2` (configuration not stated) here?
The IC50 was > 80 µM (inactive).

Which IC50 does the source give for `O=C1Nc2cc(C(=O)NCCN3CCCC3)ccc2S/C1=C/c1ccccc1F` here?
The IC50 was > 80 µM (inactive).

How did the IC50 turn out when `CN(C)CCNC(=O)c1ccc2c(c1)NC(=O)/C(=C\c1cccc(Cl)c1)S2` was run?
Its IC50 is > 80 µM (inactive).

With `CCN1CCCC1CNC(=O)c1ccc2c(c1)NC(=O)CO2` (configuration not stated) as the molecule, how does the IC50 read?
The IC50 was > 80 µM (inactive).

With `CC1Cc2ccccc2N1S(=O)(=O)c1nnc(NC(=O)c2cccc(F)c2)s1` (configuration not stated) as the molecule, how does the IC50 read?
Its IC50 is > 80 µM (inactive).

With `O=C(NCCN1CCCCC1)c1ccc2c(c1)NC(=O)c1ccccc1O2` as the molecule, how does the IC50 read?
The IC50 was 50.3 µM.

With `Cc1ccccc1C(=O)Nc1nnc(S(=O)(=O)N2CCCCCC2)s1` as the molecule, how does the IC50 read?
The IC50 was > 80 µM (inactive).
